Patent US20200045974A1, “Substituted Oxadiazoles for Combating Phytopathogenic Fungi” (BASF SE, priority 2017, published 2020)

Assays:
Format in all cases: in vivo
[1] = tested on: Phakopsora pachyrhizi; assay: Curative control of soy bean rust on soy beans; settings: 32 ppm active compound, soy bean seedlings sprayed after inoculation, assessed after 14 days; untreated plants 100%
Protocol: (§1) This mixture was added to 25 mg of the compound to give a total of 5 mL. Water was then added to total volume of 100 mL. This stock solution was diluted with the described solvent-emulsifier-water mixture to the given concentration.
II.1) Curative Control of Soy Bean Rust on Soy Beans Caused by Phakopsora pachyrhizi
Leaves of pot-grown soy bean seedlings were inoculated with spores of Phakopsora pachyrhizi. To ensure the success of the artificial inoculation, the plants were transferred to a humid chamber with a relative humidity of about 95% and 20 to 24° C. for 24 hours. The next day the plants were cultivated for 3 days in a greenhouse chamber at 23 to 27° C. and a relative humidity between 60 and 80%. Then the plants were sprayed to run-off with an aqueous suspension, containing the concentration of active ingredient or their mixture as described below. The plants were allowed to air-dry. Then the trial plants were cultivated for 14 days in a greenhouse chamber at 23 to 27° C. and a relative humidity between 60 and 80%. The extent of fungal attack on the leaves was visually assessed as % diseased leaf area.

[2] = tested on: Phakopsora pachyrhizi; assay: Protective control of soy bean rust on soy beans; settings: 32 ppm active compound, soy bean seedlings sprayed 2 days before inoculation, assessed after fourteen days; untreated plants 100%
Protocol: as §1
II.2) Protective Control of Soy Bean Rust on Soy Beans Caused by Phakopsora pachyrhizi
Leaves of pot-grown soy bean seedlings were sprayed to run-off with an aqueous suspension, containing the concentration of active ingredient or their mixture as described below. The plants were allowed to air-dry. The trial plants were cultivated for 2 day in a greenhouse chamber at 23 to 27° C. and a relative humidity between 60 and 80%.Then the plants were inoculated with spores of Phakopsora pachyrhizi. To ensure the success the artificial inoculation, the plants were transferred to a humid chamber with a relative humidity of about 95% and 20 to 24° C. for 24 hours. The trial plants were cultivated for fourteen days in a greenhouse chamber at 23 to 27° C. and a relative humidity between 60 and 80%. The extent of fungal attack on the leaves was visually assessed as % diseased leaf area.

[3] = tested on: Puccinia recondite; assay: Curative control of brown rust on wheat; settings: 32 ppm active compound, wheat seedlings sprayed after inoculation, assessed after 8 days; untreated plants 90%
Protocol: as §1
II.3) Curative Control of Brown Rust on Wheat Caused by Puccinia Recondite
The first two developed leaves of pot-grown wheat seedling were dusted with spores of Puccinia recondite. To ensure the success the artificial inoculation, the plants were transferred to a humid chamber without light and a relative humidity of 95 to 99% and 20 to 24° C. for 24 hours. The next day the plants were cultivated for 3 days in a greenhouse chamber at 20 to 24° C. and a relative humidity between 65 and 70%. Then the plants were sprayed to run-off with an aqueous suspension, containing the concentration of active ingredient or their mixture as described below. The plants were allowed to air-dry. Then the trial plants were cultivated for 8 days in a greenhouse chamber at 20 to 24° C. and a relative humidity between 65 and 70%. The extent of fungal attack on the leaves was visually assessed as % diseased leaf area.

O=C(NC12CC(C1)C2)c1ccc(-c2noc(C(F)(F)F)n2)cc1 [Ex-1, N-(1-bicyclo[1.1.1]pentanyl)-4-[5-(trifluoromethyl)-1,2,4-oxadiazol-3-yl]benzamide]
diseased leaf area [1]: 0% | diseased leaf area [2]: 0% | diseased leaf area [3]: 2%
